Source: patent publication US20190105367A1, “ANTIMICROBIAL 4-OXOQUINOLIZINES” (Emergent Product Development Gaithersburg Inc., priority 2011, published 2019)
Converted amounts (≈) assume the structure as drawn.

Experiments:
A. baumannii A489 [1] = test: MIC without and with sub-inhibitory polymyxin B (Example 4); assay type: cell-based, Acinetobacter baumannii; conditions: 1st experiment
A. baumannii A489 [2] = test: Preliminary MBC without and with sub-inhibitory polymyxin B (Example 4); assay type: cell-based, Acinetobacter baumannii; conditions: Acinetobacter baumannii, A489, read-out: MBC +[…] PB, A. baumannii A489; +[…] polymyxin B; preliminary MBC; 1st experiment
A. baumannii J2 [3] = test: MIC without and with sub-inhibitory polymyxin B (Example 4); assay type: cell-based, Acinetobacter baumannii; conditions: 1st experiment
A. baumannii NCTC 13301 [4] = test: Preliminary MBC without and with sub-inhibitory polymyxin B (Example 4); assay type: cell-based, Acinetobacter baumannii; conditions: Acinetobacter baumannii, NCTC13301, read-out: MBC +[…] PB
Method: (§1) The plates were incubated for 18-20 hours at 37° C. The MBC was read as the lowest concentration at which colony growth was ca. 90% less than the positive control (i.e. usually where single colonies or no colonies were observed).

A. baumannii J2 [5] = test: as above; assay type: cell-based, Acinetobacter baumannii; conditions: Acinetobacter baumannii, J2, read-out: MBC +[…] PB, A. baumannii J2; +[…] polymyxin B; preliminary MBC; 1st experiment
[6] = tested on: Acinetobacter sp. (H064200250); test: as above; assay type: cell-based; conditions: Acinetobacter, read-out: MBC +[…] PB, Acinetobacter spp. H064200250; +[…] polymyxin B; preliminary MBC; 1st experiment
Method: as §1

A. baumannii A401 [7] = test: MIC without and with sub-inhibitory polymyxin B (Example 4); assay type: cell-based, Acinetobacter baumannii; conditions: 1st experiment
A. baumannii A401 [8] = test: Preliminary MBC without and with sub-inhibitory polymyxin B (Example 4); assay type: cell-based, Acinetobacter baumannii; conditions: Acinetobacter baumannii, A401, read-out: MBC +0.06 μg/ml PB, A baumannii A 401, +0.06 μg/ml polymyxin B, 1st experiment
A. baumannii A387 [9] = test: as above; assay type: cell-based, Acinetobacter baumannii; conditions: Acinetobacter baumannii, A387, read-out: MBC +0.06 μg/ml PB, A. baumannii A387, +0.06 μg/ml polymyxin B, 1st experiment
A. baumannii ATCC 19606 [10] = test: MIC without and with sub-inhibitory polymyxin B (Example 4); assay type: cell-based, Acinetobacter baumannii; conditions: 1st experiment
A. baumannii NCTC 13301 [11] = test: as above; assay type: cell-based, Acinetobacter baumannii
A. baumannii ATCC 19606 [12] = test: Preliminary MBC without and with sub-inhibitory polymyxin B (Example 4); assay type: cell-based, Acinetobacter baumannii; conditions: Acinetobacter baumannii, ATCC19606, read-out: MBC +0.06 μg/ml PB, A. baumannii ATCC 19606, +0.06 μg/ml polymyxin B, 1st experiment
[13] = tested on: Acinetobacter sp. (H064200250); test: MIC without and with sub-inhibitory polymyxin B (Example 4); assay type: cell-based; conditions: 1st experiment
A. baumannii A14 [14] = test: as above; assay type: cell-based, Acinetobacter baumannii; conditions: 1st experiment
A. baumannii A387 [15] = test: as above; assay type: cell-based, Acinetobacter baumannii; conditions: 1st experiment
A. baumannii A472 [16] = test: Preliminary MBC without and with sub-inhibitory polymyxin B (Example 4); assay type: cell-based, Acinetobacter baumannii; conditions: Acinetobacter baumannii, A472, read-out: MBC +[…] PB, A. baumannii A472; +[…] polymyxin B; preliminary MBC; 1st experiment
A. baumannii A14 [17] = test: as above; assay type: cell-based, Acinetobacter baumannii; conditions: A. baumannii A14, preliminary MBC, 1st experiment
[18] = tested on: strains of A. baumannii and one strain of Acinetobacter sp.; test: MIC with sub-inhibitory concentrations (0.25x MIC) of polymyxin B, panel of Acinetobacter strains (Example 4); assay type: cell-based; conditions: 1st experiment; […] polymyxin B; ATCC 19606, A329, A390 and A473 not taken
A. baumannii A472 [19] = test: MIC without and with sub-inhibitory polymyxin B (Example 4); assay type: cell-based, Acinetobacter baumannii; conditions: 1st experiment
[20] = tested on: GN52 Acinetobacter baumannii levofloxacin resistant clinical isolate; test: Chequerboard synergy with polymyxin B, FICI (Example 6); assay type: cell-based
Description: (§2) A chequerboard technique was used to identify possible synergistic or antagonistic interactions between the 4-oxoquinolizines compounds, levofloxacin and polymyxin B. Levofloxacin was included as a control. […] Final dilutions were made in Mueller-Hinton broth, the specific test medium used for MIC determinations according to CLSI guidelines (CLSI. Methods for Dilution Antimicrobial Susceptibility Tests for Bacteria That Grow Aerobically; Approved Standard-Eighth Edition (2009). CLSI Document M07-A8. CLSI, Wayne, Pa. 19087-1898, USA.). The test medium used was a cation-adjusted Mueller-Hinton Broth II (Becton Dickinson UK Ltd., Oxford Science Park, Oxford, UK, OX4 4DQ).
(§3) The compounds 2, 33 and 35, as well as levofloxacin were tested in combination with polymyxin B on the following isolates: GN31 Acinetobacter baumannii—antibiotic susceptible clinical isolate, GN52 Acinetobacter baumannii—levofloxacin resistant clinical isolate, GN56 Acinetobacter baumannii—levofloxacin resistant clinical isolate, GN48 Klebsiella pneumoniae—NCTC 13443—NDM-1-metallo-β-lactamase and GN10 Pseudomonas aeruginosa—ATCC 27853—antibiotic susceptible reference isolate. All isolates are from the collection maintained at Quotient Bioresearch Ltd., Cambridge, UK.
(§4) The MIC values for the compounds and polymyxin B and levofloxacin were determined by broth microdilution following CLSI guidelines, and the MICs of agents in combination were determined as described by Pillai et. al (Pillai S K, Moellering R C Jr, Eliopoulis G M; Antimicrobial Combinations in Antibiotics in Laboratory Medicine 5th Edition (V. Lorian Ed) (2005) p 365-440). Initial MIC results were used to determine the microtiter plate patterns for the chequerboards. A suitable doubling dilution concentration range was selected such that the combination antibiotic range was at least two concentrations above and four concentrations below the MIC for each isolate. A fixed range of 0.008 to 8 mg/L was tested for polymyxin B except in the case of A. baumannii GN31 where a range of 0.004 to 4 mg/L was tested when in combination with the compounds 2, 33 and 35 as well as levofloxacin.
(§5) From the raw data, fractional inhibitory concentration indices (FICI) were determined for the compounds of the invention and levofloxacin together with polymyxin B for each isolate as follows:
(§6) FICX=concentration of the combination antibiotic in a particular row MIC of the combination drug alone
(§7) FICY=MIC of polymyxin B in combination[…]MIC of the polymyxin B alone
(§8) Additionally isobolograms were created to represent the same data visually. Here, the MIC of polymyxin B was plotted against every concentration of the combination antibiotic up to the MIC.

[21] = tested on: GN56 Acinetobacter baumannii levofloxacin resistant clinical isolate; test: as above; assay type: cell-based
Description: as §2, §3, §4, §5, §6, §7, §8

[22] = in combination with polymyxin B
[23] = polymyxin B with the named antibiotic

For `Cc1c(-c2ccc(N)c(F)c2)c(F)cn2c(=O)c(C(=O)O)cc(C3CC3)c12` [Compound 17, 8-(3-fluoro-4-amino-phenyl)-1-cyclopropyl-7-fluoro-9-methyl-4-oxo-quinolizine-3-carboxylic acid], the “MIC without PB/MIC + PB” value (A. baumannii A489 [1]; A. baumannii A489, ratio, PB […]) was ≥256, the MIC (A. baumannii A489 [1]; Acinetobacter baumannii, A489, read-out: MIC +[…] PB, A. baumannii A489, +[…] polymyxin B) was ≤ 0.03 µg/mL and the MBC (A. baumannii A489 [2]) was ≤ 0.03 µg/mL. The “MIC without PB/MIC + PB” value (A. baumannii J2 [3]; A. baumannii J2, ratio, PB […]) was 64, the MIC (A. baumannii J2 [3]; Acinetobacter baumannii, J2, read-out: MIC +[…] PB, A. baumannii J2, +[…] polymyxin B) was 0.06 µg/mL (≈ 0.162 µM) and the MBC (A. baumannii NCTC 13301 [4]) was ≤ 0.03 µg/mL. For the same compound, the MBC (A. baumannii J2 [5]) was 0.06 µg/mL (≈ 0.162 µM), the MBC [6] was 0.06 µg/mL (≈ 0.162 µM) and the “MIC without PB/MIC + PB” value (A. baumannii A401 [7]; A baumannii A 401, ratio, PB 0.06 μg/ml) was 8. For the same compound, the MIC (A. baumannii A401 [7]; Acinetobacter baumannii, A401, read-out: MIC +0.06 μg/ml PB, A baumannii A 401, +0.06 μg/ml polymyxin B) was 0.5 µg/mL, the MBC (A. baumannii A401 [8]) was 0.5 µg/mL and the MBC (A. baumannii A387 [9]) was ≤ 0.03 µg/mL. For the same compound, the “MIC without PB/MIC + PB” value (A. baumannii ATCC 19606 [10]; A. baumannii ATCC 19606, ratio, PB 0.06 μg/ml) was ≥16, the MIC (A. baumannii ATCC 19606 [10]; Acinetobacter baumannii, ATCC19606, read-out: MIC +0.06 μg/ml PB, A. baumannii ATCC 19606, +0.06 μg/ml polymyxin B) was ≤ 0.03 µg/mL and the “MIC without PB/MIC + PB” value (A. baumannii NCTC 13301 [11]; A. baumannii NCTC 13301, ratio, PB […], 1st experiment) was ≥512. The MIC (A. baumannii NCTC 13301 [11]; Acinetobacter baumannii, NCTC13301, read-out: MIC +[…] PB) was ≤ 0.03 µg/mL, the MBC (A. baumannii ATCC 19606 [12]) was ≤ 0.03 µg/mL and the “MIC without PB/MIC + PB” value ([13]; Acinetobacter spp. H064200250, ratio, PB […]) was 128. The MIC ([13]; Acinetobacter, read-out: MIC +[…] PB, Acinetobacter spp. H064200250, +[…] polymyxin B) was 0.06 µg/mL (≈ 0.162 µM), the “MIC +0.06 μg/ml PB” value (A. baumannii A14 [14]; +0.06 μg/ml polymyxin B) was 1 µg/mL and the MIC (A. baumannii A14 [14]; Acinetobacter baumannii, 24 h, without polymyxin B, read-out: MIC without PB) was 16 µg/mL (≈ 43.2 µM). The “MIC without PB/MIC + PB” value (A. baumannii A14 [14]; ratio, PB 0.06 μg/ml) was 16, the “MIC without PB/MIC + PB” value (A. baumannii A387 [15]; A. baumannii A387, ratio, PB 0.06 μg/ml) was ≥32 and the MIC (A. baumannii A387 [15]; Acinetobacter baumannii, A387, read-out: MIC +0.06 μg/ml PB, A. baumannii A387, +0.06 μg/ml polymyxin B) was ≤ 0.03 µg/mL. The MBC (A. baumannii A472 [16]) was 0.125 µg/mL (≈ 0.338 µM), the “MBC +0.06 μg/ml PB” value (A. baumannii A14 [17]; +0.06 μg/ml polymyxin B) was 1 µg/mL and the MBC (A. baumannii A14 [17]; Acinetobacter baumannii, without polymyxin B, read-out: MBC without PB) was 16 µg/mL (≈ 43.2 µM). For the same compound, the “MIC range with PB (0.25x MIC) Oct. 1, 2008 n = 8” value [18] was ≤0.03 to 1 µg/mL, the “MIC without PB/MIC + PB” value (A. baumannii A472 [19]; A. baumannii A472, ratio, PB […]) was ≥128 and the MIC (A. baumannii A472 [19]; Acinetobacter baumannii, A472, read-out: MIC +[…] PB, A. baumannii A472, +[…] polymyxin B) was ≤ 0.03 µg/mL.
In the case of `Cc1c(-c2ccc(N)nc2)ccn2c(=O)c(C(=O)O)cc(C3CC3)c12` [Compound 33, 8-(6-amino-3-pyridyl)-1-cyclopropyl-9-methyl-4-oxo-quinolizine-3-carboxylic acid], the “Combination drug MIC alone” value [20] is reported as 4 µg/mL, the FICx [20] is reported as 0.25 and the FICy [20] is reported as 0.24. For the same compound, the FICI ([20]; combination with polymyxin B) was 0.49, the Synergy ([20]; combination with polymyxin B) was “Synergy (Synergy (FICI <0.5))” and the “Combination drug concentration in combination” value [20, 22] was 1 mg/L. The “Polymyxin B MIC in combination” value [20, 23] was 0.12 µg/mL, the “Combination drug MIC alone” value [21] was 32 µg/mL and the FICx [21] was 0.06. For the same compound, the FICy [21] was 0.24, the FICI ([21]; combination with polymyxin B) was 0.30 and the Synergy ([21]; combination with polymyxin B) was “Synergy (Synergy (FICI <0.5))”. For the same compound, the “Combination drug concentration in combination” value [21, 22] was 2 mg/L and the “Polymyxin B MIC in combination” value [21, 23] was 0.12 µg/mL.
